According to ChEMBL document CHEMBL5725497, “Cyclohexyl pyridine derivative” (2017):
pIC50: −log10 of the molar value.

Biological target: Substance-P receptor (Homo sapiens, UniProt P25103)
Assay: Receptor Binding Assay: The buffer solution for the receptor binding test was dispensed to the wells of a 96-well assay plate (Greiner) at 22.5 μL/well. DMSO solutions of a test compound, which were prepared at an 80-time higher concentration using 100% dimethyl sulfoxide (DMSO), were added to the wells at 2.5 μL/well (final concentrations of 1 nM to 100 nM), and the solutions were mixed. As a radiolabeled ligand, 125I-substance P (Substance P, [125I]Tyr8-, PerkinElmer) was used. 125I-substance P was diluted with the buffer solution for the receptor binding test to a concentration resulting in 125 pmol/25 μL/well and added to the 96-well assay plate, and the solutions were mixed. The membrane fraction prepared from the human NK1 receptor-expressing cells was diluted with the buffer solution for the receptor binding test to a concentration resulting in 8 to 10 μg/well, suspended until the suspension became in such a homogenous state that the suspension could flow through a 27 G injection needle smoothly and then added to the 96-well assay plate at 150 μL/well. Then, the plate was incubated at room temperature for 60 minutes while shaking the plate. […]

Chain of Substance-P receptor (P25103 whole entry): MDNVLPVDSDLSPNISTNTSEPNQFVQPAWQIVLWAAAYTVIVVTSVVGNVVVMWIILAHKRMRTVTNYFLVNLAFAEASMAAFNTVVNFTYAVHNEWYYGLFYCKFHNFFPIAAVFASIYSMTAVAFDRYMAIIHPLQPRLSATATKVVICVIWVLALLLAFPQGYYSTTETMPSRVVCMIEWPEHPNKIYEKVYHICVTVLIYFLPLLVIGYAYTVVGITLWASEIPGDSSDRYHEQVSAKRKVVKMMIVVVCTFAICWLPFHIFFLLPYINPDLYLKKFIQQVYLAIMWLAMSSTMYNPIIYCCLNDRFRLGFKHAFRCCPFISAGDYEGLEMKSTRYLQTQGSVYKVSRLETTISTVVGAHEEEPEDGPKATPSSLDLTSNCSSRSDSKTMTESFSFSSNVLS

pIC50: 8.26
Structure (SMILES): Cc1cc(F)ccc1-c1cc(C2CCC(CC(=O)O)CC2)nc(Cl)c1N(C)C(=O)C(C)(C)c1cc(C(F)(F)F)cc(C(F)(F)F)c1 (stereo unspecified)
